Results as given in patent US20140187784A1, “RADIOACTIVE QUINOLINONE DERIVATIVE AND PHARMACEUTICAL DRUG COMPRISING THE SAME” (Nihon Medi-Physics Co., Ltd., priority 2012, published 2014).
Like-named read-outs stand apart in the source and are kept apart here.

Assays:
human CYP11B1 = molecular target: T1, human CYP11B1 (Homo sapiens, UniProt P15538); test: Inhibition of cortisol production in V79-B1 cells expressing human CYP11B1 (ELISA); assay type: cell-based; conditions: 11-deoxycortisol 100 nmol/L, 1 hour, unlabeled form, read-out: IC50 against cortisol production
T1 construct: expressed in transfected cells; host or cells: Chinese hamster lung-derived fibroblast V79 cells (V79-B1)
T1 sequence (P15538 25-503): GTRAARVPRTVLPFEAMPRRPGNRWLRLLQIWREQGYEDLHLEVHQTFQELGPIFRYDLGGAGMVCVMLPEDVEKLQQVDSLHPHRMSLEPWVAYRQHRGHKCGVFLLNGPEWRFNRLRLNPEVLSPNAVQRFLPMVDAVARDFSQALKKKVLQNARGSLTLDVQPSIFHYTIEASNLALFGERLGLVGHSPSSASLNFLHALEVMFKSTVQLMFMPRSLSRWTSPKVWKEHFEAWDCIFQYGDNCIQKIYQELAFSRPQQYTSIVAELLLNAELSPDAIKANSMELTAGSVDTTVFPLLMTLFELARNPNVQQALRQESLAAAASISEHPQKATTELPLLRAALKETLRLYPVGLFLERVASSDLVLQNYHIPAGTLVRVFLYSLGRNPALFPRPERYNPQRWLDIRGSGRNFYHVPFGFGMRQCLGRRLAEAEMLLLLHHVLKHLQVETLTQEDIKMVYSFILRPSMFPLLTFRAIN
Experimental: (§1) Chinese hamster lung-derived fibroblast V79 cells (obtained from European Collection of Cell Cultures (ECACC) via DS Pharma Biomedical Co., Ltd.) were allowed to express human CYP11B2 and human CYP11B1 to prepare V79-B2 and V79-B1, respectively. V79-B2 or V79-B1 was inoculated to a microplate and cultured overnight. Then, corticosterone and 11-deoxycortisol were added at final concentrations of 100 nmol/L into the culture supernatants of V79-B2 and V79-B1, respectively. At the same time, iodometomidate (IMTO) or the unlabeled form of PAY15, PAY21, PAY27, or PAY54 synthesized in Example 2, 5, 8, or 12 was added at a final concentration of 10^−4 to 10^3 nmol/L into the culture supernatants. One hour later, the culture supernatant of V79-B1 was recovered, and the concentration of cortisol, which is a metabolite of CYP11B1, was measured by enzyme-linked immunosorbent assay (ELISA). Four hours later, the culture supernatant of V79-B2 was recovered, and the concentration of aldosterone, which is a metabolite of CYP11B2, was measured by ELISA. […] IC50 against cortisol production/IC50 against aldosterone production was calculated and used as a selectivity factor for CYP11B2.

CYP11B2 [1] = molecular target: T2, CYP11B2 (Homo sapiens, UniProt P19099); test: Inhibition of aldosterone production in V79-B2 cells expressing human CYP11B2 (ELISA); assay type: cell-based; set-up: expressed in transfected cells; host or cells: Chinese hamster lung-derived fibroblast V79 cells (V79-B2)
T2 sequence (P19099 25-503): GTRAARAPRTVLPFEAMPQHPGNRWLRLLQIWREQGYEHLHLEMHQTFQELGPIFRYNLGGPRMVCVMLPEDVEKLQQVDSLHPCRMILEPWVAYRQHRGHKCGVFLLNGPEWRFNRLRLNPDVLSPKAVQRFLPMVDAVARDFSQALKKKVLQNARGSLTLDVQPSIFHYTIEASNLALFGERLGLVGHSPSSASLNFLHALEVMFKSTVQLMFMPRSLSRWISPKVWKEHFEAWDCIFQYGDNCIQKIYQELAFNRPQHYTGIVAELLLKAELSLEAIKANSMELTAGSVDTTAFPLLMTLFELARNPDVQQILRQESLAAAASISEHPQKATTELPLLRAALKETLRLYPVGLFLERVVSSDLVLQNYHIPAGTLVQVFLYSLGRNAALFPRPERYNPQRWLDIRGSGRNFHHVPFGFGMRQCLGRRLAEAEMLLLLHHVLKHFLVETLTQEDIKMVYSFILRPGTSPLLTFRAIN
Experimental: as §1

CYP11B2 [2] = molecular target: T2, CYP11B2; conditions: reported by Stefanie Hahner et al., J Clin Endocrinol Metab 2008; cited from earlier work
[3] = Pharmacokinetic and distribution experiment using CD-1 (ICR) mice instead of ddy mice; assay type: in vivo; conditions: similar operation using CD-1 (ICR) mice instead of ddy mice
[4] = Stability evaluation in plasma (HPLC, RI detector); assay type: in vitro ADME; conditions: CD-1 mouse plasma, 37° C., incubation for 120 minutes
Experimental: The stability of [^125I]PAY21 in plasma was evaluated by the following procedures: Blood was collected from the heart of each CD-1 mouse. Plasma was separated by centrifugation and passed through Cosmonice filter (diameter: 4 mm, pore size: 0.45 μm, Nacalai Tesque, Inc.). 350 μL of the plasma thus filtered was incubated at 37° C. for 15 minutes. Then, 30 μL of a saline solution of [^125I]PAY21 (18.5 kBq (0.5 μCi)) was added thereto. After incubation for 120 minutes, a 100 μL aliquot of the mixture was separated and added to methanol (500 μL) under ice cooling. The mixture was further centrifuged, and the supernatant (400 μL) was analyzed by HPLC. The HPLC conditions were the same as those shown in Example 6.

[5] = Pharmacokinetic and distribution experiment (radioactivity in blood and excised organs after tail vein injection); assay type: in vivo; conditions: ddy mice; for Adrenal gland/Blood ratio / Adrenal gland/Kidney ratio / Adrenal gland/Liver ratio / Radioactivity Distribution, Adrenal gland / Radioactivity Distribution, Blood / Radioactivity Distribution, Heart / Radioactivity Distribution, Kidney / Radioactivity Distribution, Large intestine / Radioactivity Distribution, Liver / Radioactivity Distribution, Lung / Radioactivity Distribution, Pancreas / Radioactivity Distribution, Small intestine / Radioactivity Distribution, Spleen / Radioactivity Distribution, Stomach / Radioactivity Distribution, Thyroid: tail vein injection, 18.5 kBq (0.5 μCi)
Experimental: (§2) The HPLC fraction of [^125I]PAY15 obtained in Example 3 was concentrated and then diluted with saline. The resulting solution was used in administration. 100 μL of the solution (18.5 kBq (0.5 μCi)) was injected to the tail vein of each of five ddy mice (6 weeks old). Five minutes later, each mouse was decapitated, and blood was collected. Then, organs (adrenal gland, pancreas, heart, lung, stomach, small intestine, large intestine, liver, spleen, kidney, and thyroid gland) were excised. After measurement of their weights, the radioactivities of blood and each excised organ were measured. Also, the point in time when each mouse was decapitated was changed to 5, 15, 30, 60, and 120 minutes later to perform similar operation.
The HPLC fraction of [^125I]PAY21 obtained in Example 6 was concentrated and then diluted with saline. The resulting solution was used in administration to perform the same operation as in Evaluation 1.
as §2, with “[^18F]PAY27 obtained” for “The HPLC fraction of [^125I]PAY15 obtained”, “Example 10” for “Example 3”, “was” for “was concentrated and then”, “solution (14.8” for “solution (18.5”, “kBq (4” for “kBq (0.5”, “and thigh bone)” for “and thyroid gland)”
as §2, with “[^18F]PAY54 obtained” for “The HPLC fraction of [^125I]PAY15 obtained”, “Example 13” for “Example 3”, “was” for “was concentrated and then”, “solution (14.8” for “solution (18.5”, “kBq (4” for “kBq (0.5”, “and thigh bone)” for “and thyroid gland)”

## COC(=O)c1cncn1[C@H](C)c1ccc(I)cc1 [IMTO, iodometomidate, reference compound]
Human CYP11B1
  IC50: 0.13 nM
CYP11B2 [1]; IC50 against cortisol production/IC50 against aldosterone production, selectivity factor for CYP11B2
  Selectivity factor: 0.93
CYP11B2 [1]; V79-B2 cells, corticosterone 100 nmol/L, 4 hours, unlabeled form, read-out: IC50 against aldosterone production
  IC50: 0.14 nM
CYP11B2 [2]
  Selectivity factor: 0.261

## COC(=O)c1cncn1C(C)c1ccccc1 (stereo not drawn) [MTO, metomidate]
CYP11B2 [2]
  Selectivity factor: 0.275
  selectivity for CYP11B1 versus CYP11B2: higher selectivity for steroid 11β-hydroxylase (CYP11B1) than that for aldosterone synthase (CYP11B2)

## O=C1CCc2cc(-c3cncc([125I])c3)cc3c2N1CC3 [[^125I]PAY21, 8-(5-[^125I]iodopyridin-3-yl)-1,2,5,6-tetrahydro-4H-pyrrolo[3,2,1-ij]quinolin-4-one]
[3]
  radioactivity distribution in CD-1 (ICR) mice compared with ddy mice: no difference between the species
[4]
  peak area of intact compound after incubation in plasma: approximately 60%
[5]; at an early stage after administration
  radioactivity accumulation in the adrenal gland compared with blood and periadrenal tissues: high radioactivity accumulation
[5]; 5 min
  Adrenal gland/Blood ratio: 1.71 ± 0.08
  Adrenal gland/Kidney ratio: 1.52 ± 0.19
  Adrenal gland/Liver ratio: 1.13 ± 0.14
  Radioactivity Distribution, Adrenal gland: 9.7 ± 1.4 % dose/g
  Radioactivity Distribution, Blood: 5.7 ± 0.8 % dose/g
  Radioactivity Distribution, Heart: 3.6 ± 0.4 % dose/g
  Radioactivity Distribution, Kidney: 6.4 ± 0.4 % dose/g
  Radioactivity Distribution, Large intestine: 2.3 ± 0.4 % dose/g
  Radioactivity Distribution, Liver: 8.6 ± 1.1 % dose/g
  Radioactivity Distribution, Lung: 5.6 ± 0.7 % dose/g
  Radioactivity Distribution, Pancreas: 4.0 ± 0.5 % dose/g
  Radioactivity Distribution, Small intestine: 6.0 ± 1.0 % dose/g
  Radioactivity Distribution, Spleen: 3.9 ± 0.4 % dose/g
  Radioactivity Distribution, Stomach: 10.1 ± 1.6 % dose/g
  Radioactivity Distribution, Thyroid: 114.1 ± 22.4 % dose/g
[5]; 15 min
  Adrenal gland/Blood ratio: 0.75 ± 0.17
  Adrenal gland/Kidney ratio: 0.90 ± 0.24
  Adrenal gland/Liver ratio: 1.12 ± 0.36
  Radioactivity Distribution, Adrenal gland: 3.6 ± 1.0 % dose/g
  Radioactivity Distribution, Blood: 4.7 ± 0.4 % dose/g
  Radioactivity Distribution, Heart: 2.1 ± 0.3 % dose/g
  Radioactivity Distribution, Kidney: 4.0 ± 0.6 % dose/g
  Radioactivity Distribution, Large intestine: 2.2 ± 0.1 % dose/g
  Radioactivity Distribution, Liver: 3.2 ± 0.4 % dose/g
  Radioactivity Distribution, Lung: 4.1 ± 0.3 % dose/g
  Radioactivity Distribution, Pancreas: 2.6 ± 0.3 % dose/g
  Radioactivity Distribution, Small intestine: 8.1 ± 2.2 % dose/g
  Radioactivity Distribution, Spleen: 3.0 ± 0.4 % dose/g
  Radioactivity Distribution, Stomach: 28.4 ± 3.3 % dose/g
  Radioactivity Distribution, Thyroid: 332.2 ± 43.1 % dose/g
[5]; 30 min
  Adrenal gland/Blood ratio: 0.76 ± 0.14
  Adrenal gland/Kidney ratio: 0.82 ± 0.10
  Adrenal gland/Liver ratio: 1.26 ± 0.20
  Radioactivity Distribution, Adrenal gland: 2.8 ± 0.3 % dose/g
  Radioactivity Distribution, Blood: 3.7 ± 0.4 % dose/g
  Radioactivity Distribution, Heart: 1.5 ± 0.1 % dose/g
  Radioactivity Distribution, Kidney: 3.4 ± 0.4 % dose/g
  Radioactivity Distribution, Large intestine: 2.1 ± 0.2 % dose/g
  Radioactivity Distribution, Liver: 2.2 ± 0.2 % dose/g
  Radioactivity Distribution, Lung: 3.4 ± 0.3 % dose/g
  Radioactivity Distribution, Pancreas: 2.4 ± 0.5 % dose/g
  Radioactivity Distribution, Small intestine: 10.3 ± 2.8 % dose/g
  Radioactivity Distribution, Spleen: 2.5 ± 0.6 % dose/g
  Radioactivity Distribution, Stomach: 40.7 ± 3.5 % dose/g
  Radioactivity Distribution, Thyroid: 1570.0 ± 165.0 % dose/g
[5]; 60 min
  Adrenal gland/Blood ratio: 0.54 ± 0.17
  Adrenal gland/Kidney ratio: 0.65 ± 0.21
  Adrenal gland/Liver ratio: 1.15 ± 0.38
  Radioactivity Distribution, Adrenal gland: 1.9 ± 0.8 % dose/g
  Radioactivity Distribution, Blood: 3.4 ± 0.6 % dose/g
  Radioactivity Distribution, Heart: 1.3 ± 0.2 % dose/g
  Radioactivity Distribution, Kidney: 2.9 ± 0.6 % dose/g
  Radioactivity Distribution, Large intestine: 2.0 ± 0.4 % dose/g
  Radioactivity Distribution, Liver: 1.6 ± 0.3 % dose/g
  Radioactivity Distribution, Lung: 3.1 ± 0.6 % dose/g
  Radioactivity Distribution, Pancreas: 1.7 ± 0.3 % dose/g
  Radioactivity Distribution, Small intestine: 10.9 ± 2.9 % dose/g
  Radioactivity Distribution, Spleen: 1.9 ± 0.4 % dose/g
  Radioactivity Distribution, Stomach: 39.4 ± 9.1 % dose/g
  Radioactivity Distribution, Thyroid: 1318.7 ± 800.8 % dose/g
[5]; 120 min
  Adrenal gland/Blood ratio: 0.71 ± 0.32
  Adrenal gland/Kidney ratio: 0.81 ± 0.44
  Adrenal gland/Liver ratio: 1.33 ± 0.64
  Radioactivity Distribution, Adrenal gland: 1.8 ± 0.7 % dose/g
  Radioactivity Distribution, Blood: 2.6 ± 0.3 % dose/g
  Radioactivity Distribution, Heart: 1.0 ± 0.2 % dose/g
  Radioactivity Distribution, Kidney: 2.4 ± 0.6 % dose/g
  Radioactivity Distribution, Large intestine: 10.0 ± 4.8 % dose/g
  Radioactivity Distribution, Liver: 1.4 ± 0.2 % dose/g
  Radioactivity Distribution, Lung: 2.6 ± 0.7 % dose/g
  Radioactivity Distribution, Pancreas: 1.6 ± 0.1 % dose/g
  Radioactivity Distribution, Small intestine: 4.8 ± 1.3 % dose/g
  Radioactivity Distribution, Spleen: 1.7 ± 0.1 % dose/g
  Radioactivity Distribution, Stomach: 38.6 ± 6.5 % dose/g
  Radioactivity Distribution, Thyroid: 4664.0 ± 1419.1 % dose/g
